Data on 2 molecules can be found in PMC11272611, “Phase Ib and pharmacokinetics study of alpelisib, a PIK3CA inhibitor, and capecitabine in patients with advanced solid tumors” (Frontiers in Oncology, 2024).

Series [1] is described as follows: Pharmacokinetics of alpelisib and capecitabine in plasma (LC-MS/MS, non-compartmental). In kind it is in vivo, human. Particulars: for half-life / AUC(0-t) / Cmax: mean (range); for AUC(0-t): read-out: AUC0-6h; for AUC: range across dose escalation (dose levels 0 to 2), read-out: area under the concentration-time-curve (AUC). The procedure:
The pharmacokinetic (PK) analysis was conducted in all patients who received at least one dose of alpelisib and capecitabine combination therapy. Blood samples were collected at specified time points, including pre-dose, 1, 2, 4, and 6 hours post-dose, on day 1 of cycle 1. Measurements of alpelisib and capecitabine were carried out with a validated LC-MS/MS assay. PK parameters, including maximum plasma concentration (Cmax), time to reach maximum plasma concentration (tmax), area under the plasma concentration-time curve (AUC), and elimination half-life (t1/2), were calculated using non-compartmental methods. […] The data were presented as the mean (range) and standard deviation (SD).

In series [2] the test system is advanced solid malignancies with PIK3CA alterations. More on the design: method as in PMID 29401002. The settings on record: single-agent alpelisib, once daily; first-in-human phase I; cited from earlier work.
Details of series [3]: method as in PMID 21332655. Particulars: monotherapy, salvage regimens in Korea, retrospective data; cited from earlier work.
[4] abbreviates: human, plasma, oral, Dose level 0 (n=3): alpelisib 200mg+capecitabine 1000mg/m^2, day 1 of cycle 1.
The mark [5] stands for this setting: human, plasma, oral, Dose level 0 (n=3): alpelisib 200mg+capecitabine 1000mg/m^2, plasma, day 1 of cycle 1.
[6] abbreviates: human, plasma, oral, Dose level 1 (n=6): alpelisib 300mg+capecitabine 1000mg/m^2, day 1 of cycle 1.
[7] abbreviates: human, plasma, oral, Dose level 1 (n=6): alpelisib 300mg+capecitabine 1000mg/m^2, plasma, day 1 of cycle 1.
[8] abbreviates: human, plasma, oral, across dose levels 0, 1 and 2, read-out: time to reach peak concentration (tmax).

The half-life is how long it takes for the measured level to halve. For orientation: Cmax means the maximum level reached in the sampled fluid or tissue.

Like-named read-outs stand apart in the source and are kept apart here.

For `Cc1nc(NC(=O)N2CCC[C@H]2C(N)=O)sc1-c1ccnc(C(C)(C)C(F)(F)F)c1` [alpelisib], the Tmax in series [1] (Dose level 0 (n=3): alpelisib 200mg+capecitabine 1000mg/m^2, day 1 of cycle 1, ± SD) is 2 ± 0.6 h; in series [1] (Dose level 1 (n=6): alpelisib 300mg+capecitabine 1000mg/m^2, day 1 of cycle 1, ± SD) it was 4 ± 1.8 h; in series [1] (setting [8]) it was 2 to 4 h. The “Alpelisib exposure (Cmax and AUC0-12) with concomitant capecitabine” value in series [1] (co-administration in patients) is recorded as “unaffected”. Also, the results for the half-life in series [1] (setting [4]) and in series [1] (setting [6]) were 6.5 h and 9.29 h, respectively. Moreover, the values for the AUC(0-t) in series [1] (setting [4]) and in series [1] (setting [6]) were 4930 ng·h/mL and 5070 ng·h/mL, respectively. Further, the Cmax in series [1] (setting [5]) came to 1170 ng/mL; in series [1] (setting [7]) it was 1240 ng/mL. The AUC in series [1] (human, plasma, oral) lay within 4930 to 8190 ng·h/mL. Further, the MTD in series [2] is 400 mg.
As to `CCCCCOC(=O)Nc1nc(=O)n([C@@H]2O[C@H](C)[C@@H](O)[C@H]2O)cc1F` [capecitabine], the half-life in series [1] (setting [4]) was 0.89 h; in series [1] (setting [6]) it was 0.63 h. For the same molecule, the AUC(0-t) in series [1] (setting [4]) came to 2670 ng·h/mL; in series [1] (setting [6]), 6000 ng·h/mL. Besides, the Cmax in series [1] (setting [5]) stood at 2500 ng/mL; in series [1] (setting [7]), 4160 ng/mL. Moreover, the Tmax in series [1] (human, plasma, oral, Dose level 1 (n=6): alpelisib 300mg+capecitabine 1000mg/m^2, day 1 of cycle 1, ± SD, read-out: tmax) is 2 h; in series [1] (setting [8]), 1 to 2 h. In addition, the AUC in series [1] (human, plasma, oral) was in the range of 2670 to 8710 ng·h/mL. In addition, the disease control rate in series [3] is recorded as 60%.
